In patent US5508450A, “Benzopyran derivatives” (Ono Pharmaceutical Co., Ltd., priority 1989, dated 1996) one finds IC50 data, which are given here for 28 compounds.

Where a name gives a salt, the structure may show the parent alone.

This assay concerns Lysozyme (dimer formation with fructose). As to the kind of experiment: Inhibitory activity on Maillard reaction: formation of lysozyme dimer (lysozyme + fructose, SDS-PAGE, densitometer). It is filed as biochemical. The settings on record: lysozyme 10 mg/ml, fructose 100 mM, 0.2M sodium phosphate buffer pH 7.4, 37° C., 3 days. As to the method: The inhibitory activity on Maillard reaction of the compounds of the present invention has confirmed by the screening system mentioned below. Lysozyme (10 mg/ml) and fructose (100 mM) were dissolved in 0.2M sodium phosphatic buffer solution (PH 7.4). The solution was incubated at a temperature of 37° C. for 3 days. A given volume of the reaction solution was separated using SDS-PAGE by the electrophoresis. After the electrophoresis, the SDS-PAGE was dyed by 0.2% Coomassie Brilliant Blue R-250 and then the dimer was determined by densitometer. The compounds of the present invention were added before incubation and the inhibitory activity of them against the formation of the dimer was examined in various concentrations and IC50 values were calculated.
For orientation: IC50 means the midpoint of a concentration-inhibition curve. For `COc1c(O)c(C)c2c(c1OC)OC(C)(CCOC(=O)c1ccc(NC(=N)N)cc1)CC2` (stereo not shown) [1 (d), 2-(2,5-dimethyl-6-hydroxy-7,8-dimethoxy-3,4-di-hydro-2H-benzo[1,2-b]pyran-2-yl)-ethyl4-quanidinobenzoate hydrochloride], the IC50 came out at 340 µM.

As to `Cc1c(C)c2c(c(C)c1O)CCC(C)(CCSc1ccc(NC(=O)c3ccc(NC(=N)N)cc3)cc1)O2` (stereo not shown) [7 (h), N-[4-[2-(6-hydroxy-2,5,7,8-tetramethyl-3,4-dihydro-2H-benzo[1,2-b]pyran-2-yl)-ethylthio]phenyl]-4-guanidinobenzamidehydrochloride], the IC50 was 19 µM.

For `Cc1c(C)c2c(c(C)c1O)CCC(C)(CCOc1ccc(NC(=O)COc3ccc(NC(=N)N)cc3)cc1)O2` (stereo not shown) [7 (l), N-[4-[2-(6-hydroxy-2,5,7,8-tetramethyl-3,4-dihydro-2H-benzo[1,2-b]pyran-2-yl)-ethoxy]phenyl]-4-guanidinophenoxyacetamidehydrochloride], the IC50 is 54 µM.

Turning to `Cc1c(C)c2c(c(C)c1O)CCC(C)(CCOc1ccc(CCOc3ccc(NC(=N)N)cc3)cc1)O2` (stereo not shown) [Example 27, 4-guanidinophenyl 2-[4-[2-(6-hydroxy-2,5,7,8-tetramethyl-3,4-dihydro-2H-benzo[1,2-b]pyran-2-yl)ethoxy]phenyl]ethyl ether hydrochloride], the IC50 is 5.8 µM.

Consider `Cc1c2c(c3ccccc3c1O)OC(C)(CCOc1ccc(NC(=O)/C=C/c3ccc(NC(=N)N)cc3)cc1)CC2` (stereo not shown) [7 (n), N-[4-[2-(2,5-dimethyl-6-hydroxy-3,4-dihydro-2H-naphtho[1,2-b]pyran-2-yl)-ethoxy]phenyl]-4-guanidino-cinnamamide hydrochloride], for which the half-inhibitory concentration (IC50) was found to be 10 µM.

Regarding `Cc1c(C)c2c(c(C)c1O)CCC(C)(CCOCCNC(=N)NN)O2` (stereo not shown) [Example 26, 2-(3-aminoguanidino)ethyl 2-(6-hydroxy-2,5,7,8-tetramethyl-3,4-dihydro-2H-benzo[1,2-b]pyran-2-yl)ethyl ether hydrochloride], the IC50 came to 270 µM.

As for `Cc1c(C)c2c(c(C)c1O)CCC(C)(CCCCOc1ccc(NC(=O)/C=C/c3ccc(NC(=N)N)cc3)cc1)O2` (stereo not shown) [Example 9, N-[4-[4-(6-hydroxy-2,5,7,8-tetramethyl-3,4-dihydro-2H-benzo[1,2-b]pyran-2-yl)butoxy]phenyl]-4-guanidinocinnamamide hydrochloride], the IC50 came out at 6.2 µM.

For `CCOC(=O)c1cc(NC(=N)N)cc(C(=O)NCCC2(C)CCc3c(C)c(O)c(C)c(C)c3O2)c1` (stereo not shown) [Example 14, N-[2-(6-hydroxy-2,5,7,8-tetramethyl-3,4-dihydro-2H-benzo[1,2-b]pyran-2-yl)ethyl]-3-ethoxycarbonyl-5-guanidinobenzamide hydrochloride], the IC50 worked out at 220 µM.

As for `CCOC(=O)c1cc(NC(=N)N)cc(C(=O)Nc2ccc(OCCCCC3(C)CCc4c(C)c(O)c(C)c(C)c4O3)cc2)c1` (stereo not shown) [9 (m), N-[4-[4-(6-hydroxy-2,5,7,8-tetramethyl-3,4-dihydro-2H-benzo[1,2-b]pyran-2-yl)-butoxy]phenyl]-3-guanidino-5-ethoxycarbonylbenzamidehydrochloride], the IC50 is 9 µM.

For `Cc1c(C)c2c(c(C)c1O)CCC(C)(CC=CCCCCNC(=N)NN)O2` (stereo not shown) [Example 23, 2-[7-(3-aminoguanidino)hept-2-enyl]-6-hydroxy-2,5,7,8-tetramethyl-3,4-dihydro-2H-benzo[1,2,-b]pyran hydroiodide], the IC50 stood at 130 µM.

In the case of `Cc1c(C)c2c(c(C)c1O)CCC(C)(CCCCCCOc1ccc(NC(=N)N)cc1)O2` (stereo not shown) [29 (a), 4-guanidinophenyl 6-(6-hydroxy-2,5,7,8-tetramethyl-3,4-dihydro-2H-benzo[1,2-b]pyran-2-yl)-n-hexyl ether hydrochloride], the IC50 came to 20 µM.

For the compound `Cc1c(C)c2c(c(C)c1O)CCC(C)(CCCCNC(=O)/C=C/c1ccc(NC(=N)N)cc1)O2` (stereo not shown) [Example 22, N-[4-(6-hydroxy-2,5,7,8-tetramethyl-3,4-dihydro-2H-benzo[1,2-b]pyran-2-yl)butyl]-4-guanidinocinnamamide hydrochloride], the IC50 worked out at 48 µM.

`Cc1c(C)c2c(c(C)c1O)CCC(C)(CCNC(=O)/C=C/c1ccc(NC(=N)N)cc1)O2` (stereo not shown) [2 (e), N-[2-(6-hydroxy-2,5,7,8-tetramethyl-3,4-dihydro-2H-benzo[1,2-b]pyran-2-yl)-ethyl]4-quanidinocinnam-amide hydrochloride]: the IC50 was found to be 190 µM.

As for `Cc1c(C)c2c(c(C)c1O)CCC(C)(CCOc1ccc(CCCNC(=N)NN)cc1)O2` (stereo not shown) [Example 19, 4-[3-(3-aminoguanidino)propyl]phenyl 2-(6-hydroxy-2,5,7,8-tetramethyl-3,4-dihydro-2H-benzo[1,2-b]pyran-2-yl)ethyl ether hydroiodide], the half-maximal inhibitory concentration (IC50) was determined as 56 µM.

Turning to `CC(=O)Nc1cc(NC(=O)/C=C/c2ccc(NC(=N)N)cc2)ccc1OCCC1(C)CCc2c(C)c(O)c(C)c(C)c2O1` (stereo not shown) [7 (d), N-[3-acetoamide-4-[2-(6-hydroxy-2,5,7,8-tetramethyl-3,4-dihydro-2H-benzo[1,2-b]-pyran-2-yl)ethoxy]phenyl]-4-guanidinocinnamamidehydrochloride], the IC50 was found to be 48 µM.

Regarding `Cc1c(C)c2c(c(C)c1O)CCC(C)(CCOc1ccc(NC(=O)c3ccc(NC(=N)N)cc3)cc1C(F)(F)F)O2` (stereo not shown) [7 (k), N-[4-[2-(6-hydroxy-2,5,7,8-tetramethyl-3,4-dihydro-2H-benzo[1,2-b]pyran-2-yl)-ethoxy]-3-trifluoromethyl-phenyl]-4-guanidinobenzamidehydrochloride], the half-inhibitory concentration (IC50) turned out to be 12 µM.

As for `Cc1cc(OCCC2(C)CCc3c(C)c(O)c(C)c(C)c3O2)ccc1NC(=O)/C=C/c1ccc(NC(=N)N)cc1` (stereo not shown) [7 (f), N-[2-methyl-4-[2-(6-hydroxy-2,5,7,8-tetramethyl-3,4-dihydro-2H-benzo[1,2-b]pyran-2-yl)ethoxy]phenyl]-4-guanidinocinnamamidehydrochloride], the IC50 is 18 µM.

On to `Cc1c(C)c2c(c(C)c1O)CCC(C)(CCCCOc1ccc(NC(=O)/C=C/c3ccc(NC(=N)N)cc3)cc1C(F)(F)F)O2` (stereo not shown) [9 (l), N-[4-[4-(6-hydroxy-2,5,7,8-tetramethyl-3,4-dihydro-2H-benzo[1,2-b]pyran-2-yl)-butoxy]-3-trifluoromethyl-phenyl]-4-guanidino-cinnamamide hydrochloride], for which the IC50 was 6.6 µM.

As for `Cc1c(C)c2c(c(C)c1O)CCC(C)(CCCCNC(=O)Nc1cccc(NC(=N)N)c1)O2` (stereo not shown) [Example 12, 1-[4-(6-hydroxy-2,5,7,8-tetramethyl-3,4-dihydro-2H-benzo[1,2-b]pyran-2-yl)butyl]-3-(3-guanidinophenyl)urea hydrochloride], the IC50 came out at 200 µM.

Take `Cc1c(C)c2c(c(C)c1O)CCC(C)(CCCCOc1ccc(CCSc3ccc(NC(=N)N)cc3)cc1)O2` (stereo not shown) [28 (c), 4-guanidinophenyl 2-[4-[4-(6-hydroxy-2,5,7,8-tetramethyl-3,4-dihydro-2H-benzo[1,2-b]-pyran-2-yl)butoxy]phenyl]-ethyl thioether hydrochloride]: the concentration for half-maximal inhibition (IC50) was 4.2 µM.

In the case of `COc1cc(NC(=O)/C=C/c2ccc(NC(=N)N)cc2)ccc1OCCC1(C)CCc2c(C)c(O)c(C)c(C)c2O1` (stereo not shown) [7 (e)], the IC50 came out at 30 µM.

For `Cc1c(C)c2c(c(C)c1O)CCC(C)(CCCCNC(=O)COc1ccc(NC(=N)N)cc1)O2` (stereo not shown) [22 (a), N-[4-(6-hydroxy-2,5,7,8-tetramethyl-3,4-dihydro-2H-benzo[1,2,-b]pyran-2-yl)butyl]-2-(4-guanidinophenoxy)acetamide hydrochloride], the IC50 was determined as 500 µM.

As to `CCOC(=O)c1cc(NC(=N)N)cc(C(=O)Nc2ccc(OCCC3(C)CCc4c(C)c(O)c(C)c(C)c4O3)cc2)c1` (stereo not shown) [Example 17, N-[4-[2-(6-hydroxy-2,5,7,8-tetramethyl-3,4-dihydro-2H-benzo[1,2-b]pyran-2-yl)ethoxy]phenyl]-3-ethoxycarbonyl-5-guanidinobenzamide hydrochloride], the IC50 is 13 µM.

Take `Cc1c(C)c2c(c(C)c1O)CCC(C)(CCCCSc1ccc(NC(=O)/C=C/c3ccc(NC(=N)N)cc3)cc1)O2` (stereo not shown) [9 (d), N-[4-[4-(6-hydroxy-2,5,7,8-tetramethyl-3,4-dihydro-2H-benzo[1,2-b]pyran-2-yl)-butylthio]phenyl]-4-guanidinocinnamamidehydrochloride]: the IC50 was found to be 5.4 µM.

For `Cc1c(C)c2c(c(C)c1O)CCC(C)(CCOCCNC(=O)/C=C/c1ccc(NC(=N)N)cc1)O2` (stereo not shown) [Example 21, N-[2-[2-(6-hydroxy-2,5,7,8-tetramethyl-3,4-dihydro-2H-benzo[1,2-b]pyran-2-yl)ethoxy]ethyl]-4-guanidinocinnamamide hydrochloride], the IC50 is 220 µM.

Take `Cc1c(C)c2c(c(C)c1O)CCC(C)(CCOc1ccc(NC(=O)/C=C/c3ccc(NC(=N)N)cc3)cc1C(F)(F)F)O2` (stereo not shown) [7 (c), N-[3-trifluoromethyl-4-[2-(6-hydroxy-2,5,7,8-tetramethyl-3,4-dihydro-2H-benzo[1,2-b]pyran-2-yl)-ethoxy]phenyl]-4-guanidino-cinnamamide hydrochloride]: the IC50 amounted to 4.8 µM.

`Cc1c(C)c2c(c(C)c1O)CCC(C)(CCCCOc1ccc(NC(=N)N)cc1C(F)(F)F)O2` (stereo not shown) [10 (a), 2-trifluoromethyl-4-guanidinophenyl 4-(6-hydroxy-2,5,7,8-tetramethyl-3,4-dihydro-2H-benzo[1,2-b]-pyran-2-yl)butyl ether hydrochloride]: the IC50 stood at 21 µM.

On to `Cc1c2c(c3ccccc3c1O)OC(C)(CCOc1ccc(NC(=N)N)cc1)CC2` (stereo not shown) [5 (f), 4-guanidinophenyl 2-(2,5-dimethyl-6-hydroxy-3,4-dihydro-2H-naphtho[1,2-b]-pyran-2-yl)ethyl ether hydrochloride], for which the IC50 came out at 22 µM.
